Structures are written as SMILES.

For one test, the target named is T1, MMP-9 (Homo sapiens, UniProt P14780).
T1 construct: from tissue; host or cells: human polymorphonuclear leukocytes (PMN) from whole blood (New York Blood Center), PMA-stimulated supernatant
The test is described as follows: Thiopeptilide MMP-9 Inhibition Assay. The class given is biochemical. The conditions noted are these: for inhibition at 5 µM: read-out: MMP-9: Thiopep. % inhibition; for IC50: pH 6.5, x (n) = average of n determinations, read-out: MMP-9: Thiopep. IC50.

For another test, the target named is T2, MMP-3 (Homo sapiens, UniProt P08254).
T2 construct: Truncated Prostromelysin-257 was expressed in a soluble form in E.coli; made in house; host or cells: E. coli
The test is described as follows: Primary Thiopeptilide MMP-3 Inhibition Assay. As to conditions: for inhibition at 5 µM: read-out: MMP-3 Thiopep. % inhibition; for IC50: pH 6.5, 13 nM stromelysin, x (n) = average of n determinations, read-out: MMP-3 Thiopep. IC50. It is filed as biochemical.

T1 sequence (P14780 107-707 limits assumed): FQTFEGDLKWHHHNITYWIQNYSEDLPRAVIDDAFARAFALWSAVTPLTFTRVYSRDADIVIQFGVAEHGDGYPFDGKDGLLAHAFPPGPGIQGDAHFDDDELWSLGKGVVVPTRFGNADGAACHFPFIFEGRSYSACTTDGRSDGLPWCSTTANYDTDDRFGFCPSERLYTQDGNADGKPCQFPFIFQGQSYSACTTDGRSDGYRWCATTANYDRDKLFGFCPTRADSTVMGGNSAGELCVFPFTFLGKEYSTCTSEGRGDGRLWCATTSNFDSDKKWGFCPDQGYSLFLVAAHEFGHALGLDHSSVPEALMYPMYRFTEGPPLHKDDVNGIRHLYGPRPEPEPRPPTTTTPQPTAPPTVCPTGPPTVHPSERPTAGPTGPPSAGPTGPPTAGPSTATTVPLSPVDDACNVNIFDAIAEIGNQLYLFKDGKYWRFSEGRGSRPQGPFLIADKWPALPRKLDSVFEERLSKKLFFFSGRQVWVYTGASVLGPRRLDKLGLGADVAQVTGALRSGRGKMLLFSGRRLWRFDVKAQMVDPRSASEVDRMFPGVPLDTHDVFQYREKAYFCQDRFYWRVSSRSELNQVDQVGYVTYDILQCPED
T2 sequence (P08254 100-274 limits assumed): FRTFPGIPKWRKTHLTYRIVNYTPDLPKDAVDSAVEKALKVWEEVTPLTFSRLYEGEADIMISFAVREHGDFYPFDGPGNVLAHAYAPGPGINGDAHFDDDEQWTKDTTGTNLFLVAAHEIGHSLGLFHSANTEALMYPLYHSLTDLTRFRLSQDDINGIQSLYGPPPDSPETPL
Method for MMP-3: Enzyme: recombinant stromelysin expressed in E.coli and purified as described above. […] The protocols for the assay of compounds as stromelysin inhibitors was the same as that used for MMP-9 except that the assay buffer was 50 mM MES, pH 6.5 containing 150 mM NaCl, 10 mM CaCl2, 0.005% Brij, and 1% DMSO.

On to `O=C(O)c1ccccc1C(=O)c1ccc(-c2ccc(Cl)cc2)cc1` [Example 287, Benzoic acid, 2-[(4'-chloro[1,1'-biphenyl]-4-yl)carbonyl]-], for which the inhibition at 5 µM came to 3% at MMP-9 and 26% at MMP-3.
As to `N#CCc1ccc(-c2ccc(C(=O)CC(CCCc3ccccc3)C(=O)O)cc2)cc1` (stereo not drawn) [Example 50, [1,1'-Biphenyl]-4-butanoic acid, 4'-(cyanomethyl)γ-oxo-α-(3-phenylpropyl)-], the IC50 on MMP-9 is 800 nM; on MMP-3, 630 nM.
`O=C(O)CCC(=O)c1ccc(-c2cccc(Cl)c2)cc1` [Example 12, [1,1'-Biphenyl]-4-butanoic acid, 3'-chloro-γ-oxo-, reference compound]: the inhibition at 5 µM on MMP-9 worked out at 0%; on MMP-3 it was 17%.
For the compound `C=C(CC(=O)c1ccc(-c2ccccc2Cl)cc1)C(=O)O` [Example 24, [1,1'-Biphenyl]-4-butanoic acid, 2'-chloro-α-methylene-γ-oxo-, reference compound], the inhibition at 5 µM on MMP-9 stood at 0%; at MMP-3, 40%.
As for `CCc1ccc(SCC(CC(=O)c2ccc(-c3ccc(Cl)cc3)cc2)C(=O)O)cc1` (stereo not drawn) [Example 212, [1,1'-Biphenyl]-4-butanoic acid, 4'-chloro-α-[[(4-ethylphenyl)thio]methyl]-γ-oxo-], the IC50 at MMP-9 was found to be 390 nM; at MMP-3 it was 650 nM.
Turning to `O=C(CC(CSc1ccncc1)C(=O)O)c1ccc(-c2ccc(Cl)cc2)cc1` (stereo not drawn) [Example 222, [1,1'-Biphenyl]-4-butanoic acid, 4'-chloro-γ-oxo-α-[(4-pyridinylthio)methyl]-], the IC50 worked out at 1800 nM on MMP-9 and 610 nM at MMP-3.
As for `O=Cc1ccccc1-c1ccc(C(=O)CC(CCCc2ccccc2)C(=O)O)cc1` (stereo not drawn) [Example 82, [1,1'-Biphenyl]-4-butanoic acid, 2'-formyl-γ-oxo-α-(3-phenylpropyl)-], the values for the inhibition at 5 µM on MMP-9 and on MMP-3 were 9% and 23%, respectively.
As for `O=C(CC(COCc1ccccc1)C(=O)O)c1ccc(-c2ccc(Cl)cc2)cc1` (stereo not drawn) [Example 192, [1,1'-Biphenyl]-4-butanoic acid, 4'-chloro-γ-oxo-α-[(phenylmethoxy)methyl]-], the IC50 is 510 nM on MMP-9 and 140 nM on MMP-3.
As for `O=C(CC(CSc1cccc(Cl)c1)C(=O)O)c1ccc(-c2ccc(Cl)cc2)cc1` (stereo not drawn) [Example 242, [1,1'-Biphenyl]-4-butanoic acid, 4'-chloro-α-[[(3-chlorophenyl)thio]methyl]-γ-oxo-], the results for the IC50 at MMP-9 and on MMP-3 were 1300 nM and 490 nM, respectively.
The like results for `O=C(CC(CSc1cccc2ccccc12)C(=O)O)c1ccc(-c2ccc(Cl)cc2)cc1` (stereo not drawn) [Example 227, [1,1'-Biphenyl]-4-butanoic acid, 4'-chloro-α-[(1-naphthalenylthio)methyl]-γ-oxo-] were, in that order, 360 nM and 220 nM.
Take `O=C(CC(CSc1ccccc1Br)C(=O)O)c1ccc(-c2ccc(Cl)cc2)cc1` (stereo not drawn) [Example 219, [1,1'-Biphenyl]-4-butanoic acid, 4'-chloro-α-[[(2-bromophenyl)thio]methyl]-4'-chloro-γ-oxo-]: the concentration for half-maximal inhibition (IC50) on MMP-9 is 600 nM; on MMP-3, 260 nM.
Regarding `O=C(CC(CCCc1ccccc1)C(=O)O)c1ccc(-c2ccc(Cl)s2)cc1` (stereo not drawn) [Example 68, Benzenepentanoic acid, α-[2-[4-(5-chloro-2-thienyl)phenyl]-2-oxoethyl]-], the values for the IC50 at MMP-9 and on MMP-3 were 300 nM and 280 nM, respectively.
Take `C[C@H](C(=O)c1ccc(-c2ccc(Cl)cc2)cc1)[C@@H](C)C(=O)O` (relative stereo) [Example 284, [1,1'-Biphenyl]-4-butanoic acid, 4'-chloro-α,β-dimethyl-γ-oxo-, (R*,S*)-]: the inhibition at 5 µM on MMP-9 came out at 1%; on MMP-3, 10%.
As for `Cc1nc(-c2ccc(C(=O)CC(CC(C)C)C(=O)O)cc2)co1` (stereo not drawn) [Example 347, Benzenebutanoic acid, 4-(2-methyl-4-oxazolyl)-α-(2-methylpropyl)-γ-oxo-], the results for the inhibition at 5 µM on MMP-9 and on MMP-3 were 0% and 12%, respectively.
With `O=C(CC(CCCCCCc1ccccc1)C(=O)O)c1ccc(-c2ccc(Cl)cc2)cc1` (stereo not drawn) [Example 181, [1,1'-Biphenyl]-4-butanoic acid, 4'-chloro-γ-oxo-α-(6-phenylhexyl)-], the IC50 on MMP-9 was 290 nM; at MMP-3, 330 nM.
Consider `O=C(O)[C@H]1[C@@H](Sc2ccc(F)cc2)CC[C@@H]1C(=O)c1ccc(-c2ccc(Cl)cc2)cc1` (relative stereo) [Example 303, Cyclopentanecarboxylic acid, 2-[(4'-chloro[1,1'-biphenyl]-4-yl)carbonyl]-5-[(4-fluorophenyl)thio]-, (1α,2β,5α)-], for which the IC50 at MMP-9 was determined as 1400 nM; at MMP-3 it was 310 nM.
The like results for `CC(C)Oc1ccc(-c2ccc(C(=O)CC(CCCc3ccccc3)C(=O)O)cc2)cc1` (stereo not drawn) [Example 91, [1,1'-Biphenyl]-4-butanoic acid, 4'-(1-methylethoxy)-γ-oxo-α-(3-phenylpropyl)-] were, in that order, 700 nM and 174 nM.
For `O=C(CC(CCCCc1ccccc1)C(=O)O)c1ccc(-c2ccc(Cl)cc2)cc1` (stereo not drawn) [Example 179, [1,1'-Biphenyl]-4-butanoic acid, 4'-chloro-γ-oxo-α-(4-phenylbutyl)-], in that order: 200 nM and 160 nM.
On to `O=C(CC(CCCc1ccccc1)c1nnn[nH]1)c1ccc(-c2ccc(Br)cc2)cc1` (centres unmarked) [Example 344, 1-Hexanone, 1-(4'-bromo[1,1'-biphenyl]-4-yl)-6-phenyl-3-(1H-tetrazol-5-yl)-], for which the inhibition at 5 µM on MMP-9 amounted to 14%; on MMP-3 it was 11%.
The like results for `O=C(O)CCC(O)c1ccc(-c2ccccc2F)cc1` (centres unmarked) [Example 39, [1,1'-Biphenyl]-4-butanoic acid, 2'-fluoro-γ-hydroxy-, reference compound] were, in that order, 4% and 16%.
As to `O=C(O)CCC(=O)c1ccc(-c2ccc(Cl)cc2)cc1` [Example 6, [1,1'-Biphenyl]-4-butanoic acid, 4'-chloro-γ-oxo-, reference compound], on MMP-9, the inhibition at 5 µM was 38%. At MMP-3, the IC50 stood at 2100 nM.
`CC(C)c1ccccc1SCC(CC(=O)c1ccc(-c2ccc(Cl)cc2)cc1)C(=O)O` (stereo not drawn) [Example 221, [1,1'-Biphenyl]-4-butanoic acid, 4'-chloro-α-[[[2-(1-methylethyl)phenyl]thio]methyl]-γ-oxo-]: the IC50 at MMP-9 was 2400 nM; on MMP-3, 240 nM.
Regarding `CC(C)(CC(=O)c1ccc(-c2ccc(Cl)cc2)cc1)C(=O)O` [Example 282, [1,1'-Biphenyl]-4-butanoic acid, 4'-chloro-α,α-dimethyl-γ-oxo-], the values for the inhibition at 5 µM at MMP-9 and on MMP-3 were 0% and 2%, respectively.
Turning to `O=C(CC(CCc1ccccc1)C(=O)O)c1ccc(-c2ccc(Cl)cc2)cc1` (stereo not drawn) [Example 132, [1,1'-Biphenyl]-4-butanoic acid, 4'-chloro-γ-oxo-α-(2-phenylethyl)-], the IC50 on MMP-9 is 2600 nM; on MMP-3, 112 nM.
For `O=C(CC(CCCN1C(=O)c2ccccc2C1=O)C(=O)O)c1ccc(-c2ccc(Cl)cc2)cc1` (stereo not drawn) [Example 262, 2H-Isoindole-2-pentanoic acid, α-[2-(4'-chloro[1,1'-biphenyl]-4-yl)-2-oxoethyl]-1,3-dihydro-1,3-dioxo-], in that order: 76 nM and 95 nM.

Usually inhibition stands for the relative decrease from the control value, in per cent. What is called IC50 is the midpoint of a concentration-inhibition curve.
